The nature of data set [1]: Human Liver Microsomal Stability. The class given is in vitro ADME. The conditions noted are these: both sexes, pooled liver microsomes, pH 7.4, human liver microsomes 0.5 mg/mL protein, 1 μM compound, 6 time points 0-60 min, two replicates, read-out: T1/2 (2). How it is done:
Metabolic stability was measured by determining the rate of disappearance of compound in the presence of human liver microsomal preparations, as quantified by liquid chromatography mass-spectrometry and […] mass-spectrometry (LC-MS/MS).
Metabolic stability of test compounds was measured by determination of the rate of disappearance of the compound when incubated in the presence of human liver microsomes. Liver microsomes are prepared from the endoplasmic reticulum of hepatocytes and are the primary source of the most important enzymes (cytochrome P450s) involved in drug metabolism. Study of drug stability in the presence of liver microsomes is accepted as a valuable model permitting rapid prediction of in vivo drug stability.
Human liver microsomes were obtained from a commercial source. Test compounds (1 μM) were incubated with pooled liver microsomes (male and female). Samples were incubated for a 60 minute period and removed at up to 6 time points and analysed by LC-MS/MS for the presence/amount of test compounds.
Microsomes (final protein concentration 0.25 or 0.5 mg/mL), 0.1 M phosphate buffer pH 7.4, and test compound (final concentration 1 μM; diluted from 10 mM stock solution to give a final DMSO concentration of 0.1%) were incubated at 37° C. prior to the addition of Nicotinamide adenine dinucleotide phosphate (NADPH, final concentration 1 mM) to initiate the reaction. The final incubation volume was 100 μL. A control incubation was included for each compound tested, where 0.1 M phosphate buffer pH 7.4 was added instead of NADPH. […]
Each compound was incubated for 0, 5, 15, 30, 45 or 60 minutes. The reactions were stopped by the addition of 100 μL ice-cold acetonitrile containing internal standard (0.001 mM glipizide) at the appropriate time points. The incubation plates were centrifuged at 4000 rpm for 15 minutes at 4° C. to precipitate the protein and 0.1 mL aliquots were analysed using LC-MS/MS, with the conditions shown in the following table.
From a plot of the natural logarithm of the peak area ratio (i.e., the ratio of compound peak area:internal standard peak area) against time, the gradient of the line was determined.
For orientation: Microsomes from liver hold many membrane-bound enzymes, among them those of drug oxidation.

A short description of data set [2]: Aqueous (FaSSIF) solubility. The data set is classed as physicochemical. Particulars: fasted state simulated intestinal fluid (FaSSIF), pH 6.8, two replicates, read-out: Solubility (2). On the procedure:
Solubility was measured by equilibration of the compound in fasted state simulated intestinal fluid (FaSSIF) and quantified by high-performance liquid chromatography (HPLC).
Aqueous solubility was measured by equilibration of compounds with fasted state simulated intestinal fluid (FaSSIF) and quantified spectrophotometrically.
FaSSIF was prepared as described below:
Preparation of blank FaSSIF: 0.21 g of sodium hydroxide (NaOH) pellets, 1.97 g of dihydrogen sodium phosphate (NaH2PO4.2H2O) and 3.09 g of sodium chloride (NaCl) were dissolved in 400 mL of deionised water. […]
Preparation of FaSSIF: 0.056 g of SIF Powder (containing sodium taurocholate and lecithin) (Phares AG) was dissolved in 25 mL of blank FaSSIF and stirred until the powder was completely dissolved. The solution was allowed to stand for 2 hours during which it became opalescent; it was used within 24 hours. The final solution composition was characterised as follows: • Sodium taurocholate: 3 mM • Lecithin: 0.75 mM • Osmolarity: 270±10 mOsmol • pH: 6.5
The optical density was measured at the end of the incubation period for test compounds and a reference used to determine solubility. In brief, two samples were prepared for each determination: a reference sample consisting of a stock solution of test compound in DMSO diluted in system solution (a phosphate free, low absorption buffer) and propanol; and a test sample (prepared in triplicate) consisting of 0.5 mL FaSSIF spiked with test compound at 0.2 mM. Each sample was incubated at room temperature for 16 hours with constant shaking at 250 rpm. At the end of the incubation period, 0.3 mL of each sample was filtered through a pION filter plate (PION, Woburn Mass.), diluted 1:1 with propanol and scanned using UV spectrophotometry at λmax ([…]) using a Spectra Max Plus—Version 2.1000 (Molecular Devices, Sunnyvale, Calif.), with μSOL Explorer solubility determination software (pION, Woburn, Mass.).
FaSSIF solubility was calculated using the following formula:
[formula] wherein: • “OD” is the optical density; • “Cr” is the concentration of the reference (33.4 μM); and • “molecular weight” is for the test compound (e.g., 381.44 for ABD735).

Another data set has as its system J774 macrophages. Briefly: Resazurin Macrophage J774 Viability Assay. The data set is classed as cell-based. The conditions noted are these: Mus musculus, 12 point concentration range 10 μM to 0.5 nM, n = 4 replicates, mean of 3 independent experiments, 72 hour incubation, read-out: IC50 (2). For orientation: The colour change of resazurin is a common sign of viable cells or microbes.

For data set [3], the system named is IL-6 release from LPS-stimulated Thp1 macrophages. In words: Thp1 Macrophage IL-6 Release Assay. The class given is cell-based. The conditions noted are these: Homo sapiens, THP-1, 1.7 × 10^5 cells/well, 96-well plates, 3 days, 9 point curve, IL6 measured 18 hours after LPS, read-out: IC50 (2). From the text: Anti-inflammatory effects were further characterised by assessing the production of interleukin-6 (IL-6) by human Thp-1 derived macrophages stimulated with a pro-inflammatory stimulus bacterial lipopolysaccharide (LPS). LPS acts with a cell-surface receptor, Toll-like receptor-4 to activate the NFκB and IRF signalling pathways to produce IL-6. The reduction of IL—in this stimulated assay is indicative of anti-inflammatory effects with utility in the treatment of conditions in which IL-6 production is aberrant.
In vitro potency of test compounds in human cells was determined by incubation with Thp1 macrophages and subsequent stimulation with an inflammatory stimulus (bacterial lipopolysaccharide (LPS)) followed by measurement of cellular interleukin-6 (IL-6) release.
Thp1 cells were plated at a concentration of 1×10^5 cells/well or 1.7×10^5 cells/well in 500 μL or 150 μL RPMI complete media containing 1% penicillin-streptomycin and 10% heat inactivated foetal bovine serum in 24-well plates or 96-well plates, respectively and allowed to adhere overnight. The following day, the cells were stimulated with phorbol myristic acid (PMA) at a final concentration of 100 nM (24-well plates) or 200 nM (96-well plates) to induce differentiation and maintained for up to 8 days with a medium change at 5 days if cells were cultured to 8 days. Test compounds were prepared as […] solutions in DMSO and then serially diluted in DMSO prior to dilution in culture medium.
The diluted compounds were added to the cultures 1 hour prior to stimulation with 100 ng/mL LPS. Following a 16 or 18 hour incubation at 37° C./5% CO2, the cell culture medium was collected and assayed for human IL-6 levels using the human IL-6 duo-set ELISA kit (R&D Systems). The average results for each test compound (n=3) were expressed as a percent (%) of the average control value. The average values across the concentrations tested were then plotted and the IC50 for the inhibition of IL-6 was calculated by fitting the data to a 4-parameter IC50 equation using software from Grafit version 6.0.12 (Erithacus Software Ltd., by Dr Robin Leatherbarrow) or GraphPad Prism version 5.04 for Windows (GraphPad Software, La Jolla, Calif., USA, www.qraphpad.com). Each experiment was repeated twice and the data are presented as the mean IC50 from both experiments.

The next data set has as its target T1, hERG (Homo sapiens, UniProt Q12809).
T1 construct: expressed in transfected cells; host or cells: Chinese Hamster Ovary cells (hERG-CHO), stably transfected
In words: hERG Ion Channel Assay (Q-patch, hERG-CHO cells). The conditions noted are these: human, CHO cells stably transfected with hERG (hERG-CHO), pH 7.4, 30 μM, hERG tail current. The data set is classed as cell-based. How it is done:
The activity of the compounds against the hERG ion channel was tested. The assay was conducted using the automated path-clamp, Q-patch method using stably transfected Chinese Hamster Ovary cells (hERG-CHO). hERG-CHO cells were cultured in F-12 Kaighn's Nutrient Mixture medium (Invitrogen)+10% FBS at 37° C. for 1-3 days. Cells were kept at 30° C. for 24 to 48 hours prior to patch clamping in order to increase the hERG current amplitude. Subsequently, the cells were harvested by trypsinisation, and kept in Serum Free Medium (SFM) in the Q-patch cell preparation state for up to 6 hours at room temperature before being washed and re-suspended in extracellular solution and applied to the patch clamp sites for data recording.
Patch-clamp voltage protocol: After whole cell configuration was achieved, the cell was held at −80 mV. A 50 millisecond pulse to −40 mV was delivered to measure the leaking current, which was subtracted from the tail current on-line. Then the cell was depolarized to +20 mV for 2 seconds, followed by a one second pulse to −40 mV to reveal hERG tail current. This paradigm was delivered once every 5 seconds to monitor the current amplitude.
Extracellular solution: 137 mM NaCl, 4 mM KCl, 1.8 mM CaCl2, 1 mM MgCl2, 10 mM D(+)-glucose, 10 mM HePES buffer (pH adjusted to 7.4 with NaOH).
After the whole cell configuration was achieved, the extracellular solution (control) was applied first and the cell was stabilized for 2 minutes in extracellular solution. The test compound was then applied from low concentrations to high concentrations cumulatively. The cell was incubated with each test concentration for 5 minutes. During each incubation, the cell was repetitively stimulated using the voltage protocol described above, and the tail current amplitude was continuously monitored.
• (1) Peak tail current >100 pA in control. • (2) Initial run-down <30% and the run-down stops before first application of the test compound. • (3) Leak currents <50% of the control peak tail currents at any time. • (4) rs<20 MΩ throughout the experiment.
The degree of inhibition (%) was obtained by measuring the tail current amplitude, induced by a one second test pulse to −40 mV after a two second pulse to +20 mV, before and after incubation with the test compound. The difference in current was normalized to control and multiplied by 100 in order to obtain the percent inhibition.
Concentration (log) response curves were fitted to a logistic equation (three parameters assuming complete block of the current at very high test compound concentrations) to generate estimates of the 50% inhibitory concentration (IC50). The concentration-response relationship of each compound was constructed from the percentage reductions of current amplitude by sequential concentrations.
For orientation: The hERG channel carries a current that helps repolarise heart muscle cells.

≈ marks a conversion by molar mass, not a printed value.

T1 sequence (Q12809 whole entry): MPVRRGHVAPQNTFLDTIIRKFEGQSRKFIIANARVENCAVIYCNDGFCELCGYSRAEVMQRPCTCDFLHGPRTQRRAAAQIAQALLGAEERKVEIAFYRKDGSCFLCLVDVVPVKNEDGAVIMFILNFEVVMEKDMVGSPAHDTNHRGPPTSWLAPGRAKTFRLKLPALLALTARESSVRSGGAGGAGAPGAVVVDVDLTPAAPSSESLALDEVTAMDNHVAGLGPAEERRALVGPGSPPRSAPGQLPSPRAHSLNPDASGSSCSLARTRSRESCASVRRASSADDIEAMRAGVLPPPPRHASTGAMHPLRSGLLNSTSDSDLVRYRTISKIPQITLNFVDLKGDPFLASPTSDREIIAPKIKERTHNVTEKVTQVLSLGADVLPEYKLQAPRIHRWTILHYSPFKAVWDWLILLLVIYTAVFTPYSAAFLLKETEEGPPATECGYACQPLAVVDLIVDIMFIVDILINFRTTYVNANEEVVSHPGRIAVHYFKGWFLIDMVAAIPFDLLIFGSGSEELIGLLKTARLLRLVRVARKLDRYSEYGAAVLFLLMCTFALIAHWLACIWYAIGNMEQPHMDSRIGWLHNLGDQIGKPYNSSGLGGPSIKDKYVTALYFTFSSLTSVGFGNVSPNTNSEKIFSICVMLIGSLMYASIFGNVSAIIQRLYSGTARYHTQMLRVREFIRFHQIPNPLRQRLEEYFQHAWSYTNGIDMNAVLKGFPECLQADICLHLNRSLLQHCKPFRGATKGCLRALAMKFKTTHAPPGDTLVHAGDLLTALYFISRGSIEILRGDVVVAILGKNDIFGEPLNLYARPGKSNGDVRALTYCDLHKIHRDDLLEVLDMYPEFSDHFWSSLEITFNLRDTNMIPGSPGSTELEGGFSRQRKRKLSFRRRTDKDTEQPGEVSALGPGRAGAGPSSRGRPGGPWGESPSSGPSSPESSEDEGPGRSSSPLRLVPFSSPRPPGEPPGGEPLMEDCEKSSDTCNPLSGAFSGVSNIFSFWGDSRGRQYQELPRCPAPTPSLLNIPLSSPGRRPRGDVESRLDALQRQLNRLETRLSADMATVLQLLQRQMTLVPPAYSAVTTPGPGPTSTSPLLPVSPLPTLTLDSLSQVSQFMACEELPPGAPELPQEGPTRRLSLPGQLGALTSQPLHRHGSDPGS

Turning to `C[C@]1(O)CC[C@H](NS(=O)(=O)c2ccc(-c3ccc(F)cc3C#N)cc2)CC1` [HMC-C-05-A, 2′-Cyano-4′-fluoro-N-((1r,4r)-4-hydroxy-4-methylcyclohexyl)-[1,1′-biphenyl]-4-sulfonamide], the half-life at 1 μM in data set [1] is 2.05 h. In addition, the solubility – broadly, the concentration that dissolves in the medium under given conditions – in data set [2] was 190 µg/mL (≈ 489 µM). Besides, the IC50 (in general, the concentration that inhibits the measured activity by half) worked out at 2460 nM with J774 macrophages and 1020 nM in data set [3].

Regarding `C[C@]1(O)CC[C@@H](NS(=O)(=O)c2ccc(-c3ncc(Cl)cc3Cl)c(F)c2)CC1` [HMC-N-04-B], on hERG, the inhibition (usually the change of the read-out against control, counted positive when it falls) at 5 min, 30 µM was determined as 60%.

With `C[C@]1(O)CC[C@H](NS(=O)(=O)c2ccc(-c3ccc(C#N)cc3F)cc2)CC1` [HMC-C-06-A, 4′-Cyano-2′-fluoro-N-((1r,4r)-4-hydroxy-4-methylcyclohexyl)-[1,1′-biphenyl]-4-sulfonamide], the half-life at 1 μM in data set [1] turned out to be 4 h. Also, the solubility in data set [2] is 110 µg/mL (≈ 283 µM). The IC50 in the data set on J774 macrophages came out at 710 nM; in data set [3] it was 190 nM.

(Values after patent US9624167B2, “N-(4-hydroxy-4-methyl-cyclohexyl)-4-phenyl-benzenesulfonamides and N-(4-hydroxy-4-methyl-cyclohexyl)-4-(2-pyridyl)benzenesulfonamides and their therapeutic use” (PIMCO 2664 LIMITED, priority 2013, dated 2017).)
